Results on four molecules are retold here after PMC7607848 (Journal of medicinal chemistry, 2018).

Experiment [1] deals with alcohol-induced liver steatosis. The following applies: past studies; cited from earlier work.
In experiment [2] the test system is CP55940-induced hypothermia (centrally located CB1 receptors). Conditions: rodents; cited from earlier work.
Experiment [3] deals with T1, hCB1 (Homo sapiens, UniProt P21554).
The target in experiment [4] is T1, hCB1. Kind of experiment: calcium-mobilization inverse-agonist assay in CHO-hCB1 cells. Conditions: neutral antagonist or inverse agonist.

SMILES strings stand for the structures.

T1 sequence (P21554 whole entry): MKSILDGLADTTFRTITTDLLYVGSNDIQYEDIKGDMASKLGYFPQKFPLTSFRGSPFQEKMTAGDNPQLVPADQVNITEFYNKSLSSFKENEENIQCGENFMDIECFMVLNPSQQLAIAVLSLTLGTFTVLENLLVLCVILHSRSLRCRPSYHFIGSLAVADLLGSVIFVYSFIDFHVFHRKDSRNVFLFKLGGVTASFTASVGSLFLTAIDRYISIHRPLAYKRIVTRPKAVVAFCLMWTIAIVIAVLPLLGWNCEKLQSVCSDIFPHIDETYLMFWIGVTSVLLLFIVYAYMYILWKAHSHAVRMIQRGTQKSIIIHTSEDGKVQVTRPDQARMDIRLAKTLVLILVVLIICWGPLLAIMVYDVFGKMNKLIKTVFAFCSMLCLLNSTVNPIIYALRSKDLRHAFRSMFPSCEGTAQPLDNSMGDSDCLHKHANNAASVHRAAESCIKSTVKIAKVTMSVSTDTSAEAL

With `Cc1c(C(=O)NN2CCCCC2)nn(-c2ccc(Cl)cc2Cl)c1-c1ccc(Cl)cc1` [Compound 1, Rimonabant], the “reduction of alcoholic steatosis (AS)” value in experiment [1] is “effective at reducing AS”.

On to `CCNC1(C(N)=O)CCN(c2ncnc3c2nc(-c2ccccc2Cl)n3-c2ccc(Cl)cc2)CC1` [Compound 2, otenabant], for which the “blocking of CP55940-induced reduction of body temperature” value in experiment [2] was “known to block this effect”.

For the molecule `N#CC(c1ccccc1)N1CCN(c2ncnc3c2nc(-c2ccccc2Cl)n3-c2ccc(Cl)cc2)CC1` (stereo not shown) [Compound 21, {4-[8-(2-Chlorophenyl)-9-(4-chlorophenyl)-9H-purin-6-yl]-piperazin-1-yl}(phenyl)acetonitrile], the “selectivity for hCB1 over hCB2 (binding assays)” value on hCB1 [3] is recorded as ~ 60 fold.

Turning to `Clc1ccc(-n2c(-c3ccccc3Cl)nc3c(N4CCN(Cc5ccccc5Cl)CC4)ncnc32)cc1` [Compound 25, 6-[4-(2-Chlorobenzyl)piperazin-1-yl]-8-(2-chlorophenyl)-9-(4-chlorophenyl)-9H-purine], the “functional mode at hCB1” value on hCB1 [4] is “inverse agonist”.
